According to ChEMBL document CHEMBL3352308, “Identification of constrained peptidomimetic chemotypes as HIV protease inhibitors” (Eur J Med Chem, 2014):

Tests used:
[1] = biological target: Protease (Human immunodeficiency virus 1) (UniProt Q9YQ12); assay: Inhibition of HIV-1 protease using DABCYL-Abu-Ser-Gln-Asn-Tyr-Pro-Ile-Val-Gln-EDANS as substrate preincubated at 10 uM for 15 mins before substrate addition measured over 15 mins by fluorometric assay
[2] = biological target: Protease (Human immunodeficiency virus 1) (UniProt Q9YQ12); assay: Inhibition of HIV-1 protease using DABCYL-Abu-Ser-Gln-Asn-Tyr-Pro-Ile-Val-Gln-EDANS as substrate preincubated at 1 uM for 15 mins before substrate addition measured over 15 mins by fluorometric assay
[3] = biological target: Protease (Human immunodeficiency virus 1, UniProt Q9YQ12); assay: Inhibition of HIV-1 protease using DABCYL-Abu-Ser-Gln-Asn-Tyr-Pro-Ile-Val-Gln-EDANS as substrate preincubated for 15 mins before substrate addition measured over 15 mins by fluorometric assay
Protease, sequence (Q9YQ12 whole entry): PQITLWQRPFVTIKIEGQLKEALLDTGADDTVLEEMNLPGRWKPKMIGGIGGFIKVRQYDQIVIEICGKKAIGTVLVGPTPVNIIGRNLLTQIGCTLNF

Protease (Human immunodeficiency virus 1), sequence (Q9YQ12 as listed by the source): as the sequence (Q9YQ12 whole entry) above

inhibition [1] | inhibition [2] | IC50 [3] | Structure (SMILES)
78% | 60% | 700 nM | C#CCNC(=O)[C@@H]1O[C@@H]2O[C@H]1C(=O)N(Cc1ccccc1)[C@H]2Cc1ccccc1
46% |  |  | CCCC[C@@H](C(=O)OC)N1C[C@H]2O[C@H](C(=O)N3CCCCC3)[C@H](O2)C1=O
75% |  |  | CC(C)CCNC(=O)[C@@H]1O[C@@H]2O[C@H]1C(=O)N(Cc1ccccc1)[C@H]2Cc1ccccc1
30% |  |  | CC[C@H](C)[C@@H](C(=O)OC)N1C[C@@H]2O[C@@H](C(=O)N3CCCCC3)[C@@H](O2)C1=O
43% |  |  | CCCC[C@@H](C(=O)OC)N1C[C@@H]2O[C@@H](C(=O)N3CCCCC3)[C@@H](O2)C1=O
43% |  |  | CC(C)C[C@H](C(=O)O)N1C[C@@H]2O[C@@H](C(=O)N3CCCCC3)[C@@H](O2)C1=O
47% |  |  | O=C(NCCCO)[C@@H]1O[C@H]2CN(Cc3ccccc3)C(=O)[C@@H]1O2
71% |  |  | O=C([C@@H]1O[C@@]2(c3ccccc3)CN(C(c3ccccc3)c3ccccc3)C(=O)[C@@H]1O2)N1CCN(CCO)CC1
70% |  |  | COC(=O)[C@H](CC(C)C)N1C[C@@H]2O[C@@H](C(=O)N3CCN(CCc4ccccc4)CC3)[C@@H](O2)C1=O
49% |  |  | CNCCNC(=O)[C@@H]1O[C@@H]2O[C@H]1C(=O)N(Cc1ccccc1)[C@H]2Cc1ccccc1
90% | 54% | 1500 nM | C[C@@H](CO)NC(=O)[C@@H]1O[C@H]2CN(Cc3ccccc3)C(=O)[C@@H]1O2
17% |  |  | O=C([C@@H]1O[C@@H]2O[C@H]1C(=O)N(Cc1ccccc1)[C@@H]2Cc1ccccc1)N1CCOCC1
63% |  |  | CC(C)C[C@@H](C(=O)O)N1C[C@@H]2O[C@@H](C(=O)N3CCCCC3)[C@@H](O2)C1=O
59% |  |  | O=C([C@@H]1O[C@@H]2O[C@H]1C(=O)N(Cc1ccccc1)[C@@H]2Cc1ccccc1)N1CCCCC1
47% |  |  | O=C([C@H]1O[C@@H]2CN(Cc3ccccc3)C(=O)[C@H]1O2)N1CCN(CCO)CC1
34% |  |  | O=C(NC1CCCCC1)[C@@H]1O[C@H]2CN(Cc3ccccc3)C(=O)[C@@H]1O2

inhibition [1] | inhibition [2] | IC50 [3] | Structure (SMILES)
81% |  |  | C[C@@H](CO)NC(=O)[C@@H]1O[C@@H]2O[C@H]1C(=O)N(Cc1ccccc1)[C@@H]2Cc1ccccc1
77% |  |  | O=C1[C@@H]2O[C@H](CN1Cc1ccccc1)O[C@H]2C(=O)N1CCC[C@@H]1CO
57% |  |  | CCOC(=O)N1CCN(C(=O)[C@@H]2O[C@H]3CN(Cc4ccccc4)C(=O)[C@@H]2O3)CC1
66% |  |  | CCCCNC(=O)[C@@H]1O[C@@]2(c3ccccc3)CN(C(c3ccccc3)c3ccccc3)C(=O)[C@@H]1O2
58% |  |  | O=C([C@@H]1O[C@@H]2O[C@H]1C(=O)N(Cc1ccccc1)[C@@H]2Cc1ccccc1)N1CCC[C@H]1CO
36% |  |  | COC(=O)[C@H](CC(C)C)N1C[C@@H]2O[C@@H](C(=O)N3CCN(Cc4ccccc4)CC3)[C@@H](O2)C1=O
75% | 45% | 5600 nM | O=C([C@@H]1O[C@@H]2O[C@H]1C(=O)N(Cc1ccccc1)[C@H]2Cc1ccccc1)N1CCN(CCO)CC1
80% |  |  | CC(C)C[C@@H](CO)NC(=O)[C@@H]1O[C@@H]2O[C@H]1C(=O)N(Cc1ccccc1)[C@@H]2Cc1ccccc1
82% | 55% | 2600 nM | CC(C)C[C@@H](CO)NC(=O)[C@@H]1O[C@H]2CN(Cc3ccccc3)C(=O)[C@@H]1O2
67% | 33% | 7500 nM | CCCCNC(=O)[C@@H]1O[C@@H]2O[C@H]1C(=O)N(Cc1ccccc1)[C@H]2Cc1ccccc1
31% |  |  | O=C(NCCc1ccccc1)[C@@H]1O[C@H]2CN(Cc3ccccc3)C(=O)[C@@H]1O2
68% | 69% | 1900 nM | O=C(NC1CCCCC1)[C@@H]1O[C@@H]2O[C@H]1C(=O)N(Cc1ccccc1)[C@H]2Cc1ccccc1
57% |  |  | COC(=O)[C@H](CC(C)C)N1C[C@@H]2O[C@@H](C(=O)N[C@H](CO)CC(C)C)[C@@H](O2)C1=O
56% |  |  | CCCNC(=O)[C@@H]1O[C@@H]2O[C@H]1C(=O)N(Cc1ccccc1)[C@H]2Cc1ccccc1
21% |  |  | O=C([C@@H]1O[C@H]2CN(Cc3ccccc3)C(=O)[C@@H]1O2)N1CCCCC1
33% |  |  | CNCCNC(=O)[C@@H]1O[C@@]2(c3ccccc3)CN(C(c3ccccc3)c3ccccc3)C(=O)[C@@H]1O2

Structure (SMILES) | inhibition [1] | inhibition [2] | IC50 [3]
CC(C)CC(=O)N[C@H](C(=O)N[C@H](C(=O)N[C@@H](CC(C)C)[C@@H](O)CC(=O)N[C@@H](C)C(=O)N[C@@H](CC(C)C)[C@@H](O)CC(=O)O)C(C)C)C(C)C | 74% | 56% | 
